Publication PMC10385834, “Curcumin Stereoisomer, Cis-Trans Curcumin, as a Novel Ligand to A1 and A3 Adenosine Receptors” (Pharmaceuticals, 2023)

Columns and labels:
[1] = target: T1, A1AR (A1 adenosine receptor) (Homo sapiens, UniProt P30542); assay: competition with fluorescent ligand CA200623 on transfected CHO-K1 cells; confirmed by confocal microscopy; format: cell-based
T1 construct: gene ADORA1
T1 sequence (P30542 1-326): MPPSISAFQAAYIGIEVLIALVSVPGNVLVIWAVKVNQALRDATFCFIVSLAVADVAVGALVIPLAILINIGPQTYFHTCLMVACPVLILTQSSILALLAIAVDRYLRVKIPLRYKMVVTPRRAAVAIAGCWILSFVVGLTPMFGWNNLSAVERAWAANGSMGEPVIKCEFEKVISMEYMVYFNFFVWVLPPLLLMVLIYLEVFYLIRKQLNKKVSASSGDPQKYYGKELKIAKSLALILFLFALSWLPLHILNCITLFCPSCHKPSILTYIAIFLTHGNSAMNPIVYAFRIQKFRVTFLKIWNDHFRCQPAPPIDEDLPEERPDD

[2] = target: T2, A3AR (A3 adenosine receptor) (Homo sapiens, UniProt P0DMS8); assay: as above; format: cell-based
T2 construct: gene ADORA3
T2 sequence (P0DMS8 1-318): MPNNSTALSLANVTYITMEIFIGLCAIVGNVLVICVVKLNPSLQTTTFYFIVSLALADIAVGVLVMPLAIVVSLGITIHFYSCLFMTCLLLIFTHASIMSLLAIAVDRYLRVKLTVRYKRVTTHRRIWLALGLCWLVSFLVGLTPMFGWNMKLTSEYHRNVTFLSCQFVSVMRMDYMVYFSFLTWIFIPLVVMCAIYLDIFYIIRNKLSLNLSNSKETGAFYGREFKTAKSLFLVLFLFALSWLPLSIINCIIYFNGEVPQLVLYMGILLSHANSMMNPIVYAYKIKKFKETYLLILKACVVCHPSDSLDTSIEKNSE

## COc1cc(/C=C\C(=O)CC(=O)/C=C/c2ccc(O)c(OC)c2)ccc1O [CTCUR, cis-trans curcumin]
[1]
  Ki: 306 nM
[2]
  Ki: 400 nM
